Assay results from article PMC2189693 (The Journal of Experimental Medicine, 1988).

System: anti-al mAb, 3-2F1
Format: binding, mouse
Details: for Inhibition of binding of rabbit a1 Ig to anti-a1 antibody (in words): RIA with mAb 3-2F1, 24 h preincubation of inhibitor, result in words

Substance	Inhibition of binding of rabbit a1 Ig to anti-a1 antibody (in words)	expression of an a1 epitope (in words) (conclusion from peptide inhibition of al Ig binding to anti-al)
IGYIYPNIDDSAY_SQ [SMA1]	Neither the substituted peptide, SMA1, nor the control peptide, UB1, inhibited binding	–
MQIFVKTLTGKDPGG [UB1, reference compound]	Neither the substituted peptide, SMA1, nor the control peptide, UB1, inhibited binding	–
IT_SPTTEDTAT_YFCA [RA1]	–	each appear to define an al epitope
